The subject of data set [1] is gastrointestinal transit of a charcoal meal in the rat. Kind of data set: Charcoal propulsion test (gut motility) in rat. The class given is in vivo. The note with it: oral. The method, then: The effect of a drug on gut motility can be studied by means of the charcoal propulsion test.
The method used was based on that described by Takemori et al. (J. Pharmacol. Exp. Ther. 169:39, 1969). Test treatments were administered orally 60 minutes prior to an oral dose of a 10% suspension of charcoal in 2.5% gum Arabic (2 ml/kg). Twenty minutes after dosing with charcoal, the rats were sacrificed and the entire gastrointestinal tract was removed quickly and carefully. The distance that the charcoal meal had traveled toward the caecum was measured and expressed as a percentage of the total gut length.

Data set [2] can be described thus: Comparative bioavailability study of guanfacine in monkeys given guanfacine or prodrug conjugates. The note with it: oral, monkey. The format is in vivo, cynomolgus monkey. As for the experimental part:
The characteristics of the test animals are set out in Table 13.
The following pharmacokinetic parameters derived from the plasma analytical data were determined using Win Nonlin;

Data set [3] deals with T1, human α-2A adrenoceptor (Homo sapiens, UniProt P08913).
T1 construct: expressed in transfected cells; host or cells: CHO cells
T1 sequence (P08913 1-465): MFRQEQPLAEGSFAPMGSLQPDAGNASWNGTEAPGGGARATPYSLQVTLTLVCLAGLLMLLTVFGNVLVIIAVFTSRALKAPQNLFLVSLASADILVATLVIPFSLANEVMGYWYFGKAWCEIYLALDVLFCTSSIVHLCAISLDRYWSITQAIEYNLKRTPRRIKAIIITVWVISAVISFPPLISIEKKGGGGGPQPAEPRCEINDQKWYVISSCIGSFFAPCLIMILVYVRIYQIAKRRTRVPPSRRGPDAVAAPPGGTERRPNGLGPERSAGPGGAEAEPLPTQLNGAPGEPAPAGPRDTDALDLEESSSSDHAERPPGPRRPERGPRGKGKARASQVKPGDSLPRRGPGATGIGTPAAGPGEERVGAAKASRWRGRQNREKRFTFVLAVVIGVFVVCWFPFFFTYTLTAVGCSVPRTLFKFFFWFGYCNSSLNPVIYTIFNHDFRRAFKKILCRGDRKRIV
Briefly: α-2A adrenoceptor binding assay ([3H] RX821002 competition, recombinant CHO cells). The note with it: [3H] RX821002 (1 nM). As for the experimental part: The activation of this receptor is responsible for its intended therapeutic effect.
The binding assay methodology employed in this study followed that described by Langin et al. (Eur. J. Pharmacol. 167:95-104, 1989) and used human recombinant CHO cells expressing α-2 adrenoceptors. The competitive binding ligand was [3H] RX821002 (1 nM) which has a high affinity for the alpha-2A subtype.

Data set [4] can be described thus: Prodrug stability in simulated gastric fluid. To be noted: 37° C., pH 1.1, HPLC.
Method: (§1) The remaining concentrations of the prodrugs were then assayed by H PLC.
Data set [5] is described as follows: Comparative bioavailability study in monkeys in the fasted or fed state. The class given is in vivo, cynomolgus monkey. The note with it: male, cynomolgus monkey, plasma, po, 0.5 mg/kg, 0.5 mg/kg guanfacine equivalent dose, oral, read-out: mean Cmax prodrug. The method, then:
Five male cynomolgus monkeys were used. Food was withdrawn from animals in fasted groups from the evening of the day prior to dosing until approximately 4 hours after dosing.
The formulations were prepared on the day of dosing and administered orally as soon as practicable up to a maximum of 2 hours after formulation.
Blood samples (0.5 mL) were collected from all animals pre-dose and at 0.5, 1, 2, 3, 4, 6, 8 10, 12, 16 and 24 hours after dosing.
Following processing, the resultant plasma was frozen and analysed by a qualified method. Pharmacokinetic evaluation was performed using a validated pharmacokinetic software package.

Data set [6] in a line: Prodrug stability in simulated intestinal fluid. To be noted: 37° C., pH 6.8, HPLC.
Method: as §1
Data set [7] in a line: Pharmacokinetics in rat hepatic portal and tail veins after oral administration. The class given is in vivo. The method, then: Rats were surgically prepared under isofluorane anaesthesia by attaching a silicon catheter to the portal vein then exteriorising it at the nape of the neck with a blood collection port attached.
At each sampling time serial point blood samples (approximately 0.2 mL) were taken simultaneously from the lateral tail vein cannula and the hepatic portal cannula. After collection of the final blood sample each animal was killed by cervical dislocation. Blood samples were collected at 15, 30 minutes and 1, 2, 4, 8 and 24 hours post dose.
Pharmacokinetic parameters in portal and systemic plasma were derived by non-compartmental analysis (linear/logarithmic trapezoidal) using WinNonlin (Version 4.1) software.

The nature of data set [8]: Prodrug stability in freshly withdrawn porcine intestinal fluid. The note with it: for Prodrug remaining at 3 h: porcine intestinal fluid pH 6.8, 37° C., in % (unit assumed). The format is in vitro ADME. The source says:
Many of the peptidases in the intestinal lumen may not be present in the USP simulated intestinal fluid preparations previously described. […] The prodrugs evaluated were selected on the basis of adequate pharmacokinetics (see Example 8).

Data set [9] can be described thus: Comparative pharmacokinetic screening study in the monkey (relative Cmax of guanfacine). The note with it: cynomolgus monkey, in vivo, po.
Method: Blood samples were taken on 4 sampling occasions at various times up to 6 hours after administration and submitted to analysis for the parent drug and prodrug using a qualified LC-MS-MS assay.
For data set [10] the following is noted: cited from earlier work.
The mark [11] stands for this setting: Study 1, dose 0.1 mg/kg guanfacine free base equivalents.
Where [12] appears, read: Study 1, dose 0.3 mg/kg guanfacine free base equivalents.
Where [13] appears, read: Study 1, dose 1 mg/kg guanfacine free base equivalents.
The mark [14] stands for this setting: Study 1, dose 3 mg/kg guanfacine free base equivalents.
Setting [15] is: Study 1, dose 5 mg/kg guanfacine free base equivalents.

Structures can show the parent of a compound that is named as a salt. Where two headings read alike, the source gives them in different places.

On to `CC(C)[C@H](NC(=O)CCCC(=O)NC(=N)NC(=O)Cc1c(Cl)cccc1Cl)C(=O)O` [Compound 1, Guanfacine (Glutaryl-(S)-Valine) Amide], for which the “% change in GI transit vs vehicle” value in data set [1] (setting [11]) is recorded as −9%; in data set [1] (setting [12]), −6%; in data set [1] (setting [13]) it was −45%; in data set [1] (setting [14]) it was −50%; in [1] (setting [15]) it was −53%. Also, the “plasma guanfacine profile (in words)” value in data set [2] was “sustained guanfacine concentrations”. Further, the inhibition constant Ki in [3] turned out to be 7.2 µM. For the same molecule, the “% prodrug remaining following incubation for 1 h in simulated gastric fluid pH 1.1” value in [4] is listed as 80%. For the same molecule, the peak concentration (Cmax) in [5] (Fasted) amounted to 9.23 ng/mL; in data set [5] (Fed), 7.19 ng/mL; in [7] (hepatic portal vein plasma, oral, 0.5 mg/kg (footnote *), read-out: Hepatic portal vein Prodrug Cmax), 56.3 ng/mL; in [7] (tail vein (systemic) plasma, oral, 0.5 mg/kg (footnote *), read-out: Tail vein Prodrug Cmax), 8.26 ng/mL. In addition, in [6], the “% prodrug remaining following incubation for 2 h in simulated intestinal fluid pH 6.8” value is 92%. The exposure (AUC) was 159 ng·h/mL in data set [7] (hepatic portal vein plasma, oral, 0.5 mg/kg (footnote *), read-out: Hepatic portal vein Prodrug AUC) and 29.6 ng·h/mL in data set [7] (tail vein (systemic) plasma, oral, 0.5 mg/kg (footnote *), read-out: Tail vein Prodrug AUC). Besides, in data set [8] (porcine intestinal fluid), the “stability in porcine intestinal fluid (in words)” value is reported as “high stability”. The “Prodrug remaining at 3 h” value in data set [8] is given as 100.6.

For the molecule `CC(C)[C@@H](N)C(=O)N[C@@H](CCC(=O)NC(=N)NC(=O)Cc1c(Cl)cccc1Cl)C(=O)O` [Compound 5, Guanfacine ((S)-γ-Glutamate-(R)-Valine) Amide], the “% change in GI transit vs vehicle” value in data set [1] (setting [11]) is given as −6%; in data set [1] (setting [12]), −22%; in data set [1] (setting [13]) it was −48%; in [1] (Study 1, dose 1.7 mg/kg guanfacine free base equivalents), −50%; in [1] (setting [14]), −44%; in data set [1] (setting [15]) it was −42%. Moreover, the “plasma guanfacine profile (in words)” value in data set [2] was “sustained guanfacine concentrations”. In addition, in data set [3], the inhibition constant Ki was 1.6 µM. In addition, the “% prodrug remaining following incubation for 1 h in simulated gastric fluid pH 1.1” value in data set [4] is on record as 86%. Besides, the “% prodrug remaining following incubation for 2 h in simulated intestinal fluid pH 6.8” value in [6] was 89%. In addition, the area under the curve (AUC) in [7] (hepatic portal vein plasma, po, 1 mg/kg, read-out: Hepatic portal vein Prodrug AUC) stood at 61 ng·h/mL; in data set [7] (tail vein (systemic) plasma, po, 1 mg/kg, read-out: Tail vein Prodrug AUC), 4.6 ng·h/mL. Moreover, the Cmax was 41.5 ng/mL in [7] (hepatic portal vein plasma, po, 1 mg/kg, read-out: Hepatic portal vein Prodrug Cmax) and 3.5 ng/mL in [7] (tail vein (systemic) plasma, po, 1 mg/kg, read-out: Tail vein Prodrug Cmax). The “Prodrug remaining at 3 h” value in data set [8] is 91.2.

In the case of `N=C(N)NC(=O)Cc1c(Cl)cccc1Cl` [Guanfacine, N-Amidino-2-(2,6-dichlorophenyl)acetamide monohydrochloride, reference compound], the “% change in GI transit vs vehicle” value is reported as −52% in data set [1] (setting [11]); −55% in [1] (setting [12]); −47% in [1] (setting [13]); −13% in [1] (Study 2, dose 0.03 mg/kg guanfacine free base equivalents); −41% in [1] (Study 2, dose 0.1 mg/kg guanfacine free base equivalents); −56% in data set [1] (Study 2, dose 0.3 mg/kg guanfacine free base equivalents). Also, in data set [1] (0.1 mg base/kg), the “reduction in the distance traveled by the charcoal plug within 20 minutes, compared to control group” value was 41-52%. The bioavailability in data set [9] is 35%. The “bioavailability of guanfacine in man” value in data set [10] is above 80%.

The term Ki denotes the dissociation constant of the complex between target and ligand, obtained from inhibition or displacement. One may read the Cmax as the maximum level reached in the sampled fluid or tissue. The AUC is the area under the concentration-time curve, a measure of exposure. In general, bioavailability refers to dose-corrected exposure relative to a reference, in per cent.

The record behind these values is patent US20110065796A1 (SHIRE LLC, priority 2009, published 2011).
